# Measured values published in patent publication US20120196899A1, “METHODS AND PRODUCTS FOR TREATING INFLAMMATION” (Rock Creek Pharmaceuticals, Inc., priority 2010, published 2012).
# “And” between values parts separate entries of the source, which are not always exact repeats. Identical values can stand only once.
# Key:
# [1] = Physical signs after single i.v. dose (Example 3); assay type: in vivo, Sprague-Dawley rats; details: anatabine 0.1, 0.75, 1.0 mg/kg single i.v., rats
# Experimental: Four aliquots of each dose level formulation were collected and stored at −80° C. The test compound, corresponding dose level, number of animals, and sample collection times for Phase I of the study are shown in Table 3. The test compound, corresponding dose level, number of animals, and sample collection times for Phase II of the study are shown in Table 4. The physical signs of each animal were monitored following administration of the test compound.
# [2] = Body weights, weight gain and food consumption over 14 days after single i.v. dose; assay type: in vivo, Sprague-Dawley rats; details: for day 1 B.W. / day 2 B.W. / day 3 B.W. / day 4 B.W. / day 5 B.W. / day 6 B.W. / day 7 B.W. / day 8 B.W. / day 9 B.W. / day 11 B.W. / day 12 B.W. / day 13 B.W. / day 14 B.W. / day 10 B.W.: individual rats
# Experimental: Body weight and food consumption was measured daily for 14 days. On day 15, urine was collected on all surviving animals. The animals were euthanized and bled via cardiac puncture, and blood was collected for analysis. Tissues were collected, weighed, evaluated for gross abnormalities, and stored in 10% neutral-buffered formalin.
# All animals were observed daily.
# [3] = Coagulation parameters (aPTT, PT), day 15; assay type: in vivo, Sprague-Dawley rats
# Text: On day 15, urine was collected on all surviving animals for urinalysis. The animals were euthanized and bled via cardiac puncture. Blood was collected for hematology, clinical chemistry, and coagulation analysis. Tissues were collected, weighed, and stored in 10% neutral-buffered formalin for possible future analysis.
# Individual values for the coagulation parameters activated partial thromboplastin (aPTT) and prothrombin times (PT) for each animal are listed in Table 34 (normal ranges, Table 30). These are summarized in terms of descriptive statistics in Table 25.
# nAChR α4/β2 [4] = target: T1, nAChR α4/β2 (Homo sapiens, UniProt P17787+P43681); test: nAChR α4/β2 channel agonist assay (FLIPR membrane potential); assay type: cell-based; details: 0.3-1000 μM
# T1 construct: host or cells: HEK293 cells, transient transfection
# T1 sequence (P17787 26-502): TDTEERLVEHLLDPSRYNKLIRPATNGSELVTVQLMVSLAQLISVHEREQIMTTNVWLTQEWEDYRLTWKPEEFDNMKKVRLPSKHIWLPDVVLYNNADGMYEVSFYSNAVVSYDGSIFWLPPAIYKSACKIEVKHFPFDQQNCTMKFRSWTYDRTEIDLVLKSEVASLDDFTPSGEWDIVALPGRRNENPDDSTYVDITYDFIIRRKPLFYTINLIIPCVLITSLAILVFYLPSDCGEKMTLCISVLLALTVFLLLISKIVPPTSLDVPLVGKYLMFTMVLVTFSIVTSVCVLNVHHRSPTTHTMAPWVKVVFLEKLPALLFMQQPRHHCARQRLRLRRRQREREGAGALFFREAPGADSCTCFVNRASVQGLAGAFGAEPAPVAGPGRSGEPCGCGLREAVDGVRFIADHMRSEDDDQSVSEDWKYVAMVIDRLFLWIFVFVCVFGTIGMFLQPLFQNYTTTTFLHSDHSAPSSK
# T1 sequence (P43681 29-627): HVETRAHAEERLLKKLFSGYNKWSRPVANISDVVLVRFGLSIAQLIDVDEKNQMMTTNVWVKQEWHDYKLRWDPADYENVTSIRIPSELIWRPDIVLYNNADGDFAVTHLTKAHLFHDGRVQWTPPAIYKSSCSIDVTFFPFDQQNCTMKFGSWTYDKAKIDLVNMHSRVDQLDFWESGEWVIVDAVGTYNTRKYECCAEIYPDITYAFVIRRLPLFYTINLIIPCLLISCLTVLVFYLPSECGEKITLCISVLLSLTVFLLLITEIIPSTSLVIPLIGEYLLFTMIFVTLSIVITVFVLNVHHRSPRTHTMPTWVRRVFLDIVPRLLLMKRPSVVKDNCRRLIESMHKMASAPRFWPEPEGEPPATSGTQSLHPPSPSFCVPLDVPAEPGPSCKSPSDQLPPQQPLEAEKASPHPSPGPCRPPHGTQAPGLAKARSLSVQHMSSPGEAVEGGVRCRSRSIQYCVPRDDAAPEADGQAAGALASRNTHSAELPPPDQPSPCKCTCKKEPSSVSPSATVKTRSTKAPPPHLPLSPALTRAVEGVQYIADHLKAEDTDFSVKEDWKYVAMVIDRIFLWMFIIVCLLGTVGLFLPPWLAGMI
# Experimental: (§1) The following three (3) channels were evaluated: • 1. nAChR α3/β4 (encoded by the human CHRNA3 and CHRNB4 gene and stably expressed in CHO cells); • 2. nAChR α4/β2 (CHRNA4 and CHRNB2 gene and transiently expressed in HEK293 cells); and • 3. nAChR α7 (encoded by the human nicotinic α7 gene coexpressed in CHO cells with the chaperone RIC-3 encoded by the human RIC3 gene).
# (§2) The ability of each test article to act as an agonist, a positive allosteric modulator or antagonist of three nAChR receptor channels was evaluated in the presence of 0.1 atropine. Both test articles were evaluated for responses on each nAChR channel at eight (8) concentrations: 0.3, 1, 3, 10, 30, 100, 300, and 1000 μM (n=4 for each concentration).
# (§3) HEK293 or CHO cells were transiently or stably transfected with the appropriate human ion channel cDNAs. Stable transfectants were selected by coexpression with the antibiotic-resistance gene(s) incorporated into the expression plasmid(s). Selection pressure was maintained by including selection antibiotics in the culture medium. HEK293 cells were cultured in Dulbecco's Modified Eagle Medium/Nutrient Mixture F-12 (D-MEM/F-12) supplemented with 10% fetal bovine serum, 100 U/mL penicillin G sodium, 100 g/mL streptomycin sulfate and appropriate selection antibiotics. CHO cells were cultured in Ham's F-12 supplemented with 10% fetal bovine serum, 100 U/mL penicillin G sodium, 100 g/mL streptomycin sulfate and appropriate selection antibiotics.
# (§4) For FLIPR TETRA™ assay, cells were plated in 384-well black wall, flat clear bottom microtiter plates (Type: BD Biocoat Poly-D-Lysine Multiwell Cell Culture Plate) at 20,000 to 30,000 cells per well (384-well plate). Cells were incubated at 37° C. overnight or until the cells reached a sufficient density in the wells (near confluent monolayer) to use in fluorescence assays. For α4β2 assay, cells were incubated at 27° C. for at least 7 hours before use.
# (§5) Experiments were performed with either the FLIPR calcium sensitive dye kit (Fluo-8, ABDbioquest, for nAChR α3/β4 and nAChR α7) or FLIPR membrane potential kit (Molecular Devices, for nAChR α4/β2) according to the manufacturer's instructions. Briefly, cells were incubated with 201 dye for 30 min at 37° C. After dye loading period, for the agonist assay, 5 μl of the test, vehicle, or control articles at concentration of 5 times of final concentration were applied to the cells without stimulation. For the positive allosteric modulation (PAM) and antagonist assay, after test article application, the cells were stimulated with either low dose (for PAM) or high dose (for antagonist) of Ach.
# (§6) Concentration-response data was fitted to a Hill equation of the following form:
# (§7) where Base is the response at low concentrations of test article, Max is the maximum response at high concentrations, xhalf is the EC50 or IC50, the concentration of test article producing either half-maximal activation or inhibition, and rate is the Hill coefficient. Nonlinear least squares fits were made assuming a simple one-to-one binding model.
# The ability of each test article to act as an agonist of the nAChR carried out in the absence of the positive control agonist. The signal elicited in the presence of the positive control agonist (30 μM Ach) was set to 100% and the signal from the vehicle control (HBPS) was set to 0%. Values were considered significant (bold font) if the test article mean was three or more standard deviations above from the vehicle control mean.
# nAChR α4/β2 [5] = target: T1, nAChR α4/β2; assay type: cell-based; details: 100 μM Ach + 0.3 μM epibatidine; not concentration-dependent, IC50 not determinable
# Experimental: as §1, §2
# HEK293 or CHO cells were transiently or stably transfected with the appropriate human ion channel cDNAs. Stable transfectants were selected by coexpression with the antibiotic-resistance gene(s) incorporated into the expression plasmid(s). […]
# For FLIPR TETRA™ assay, cells were plated in 384-well black wall, flat clear bottom microtiter plates (Type: BD Biocoat Poly-D-Lysine Multiwell Cell Culture Plate) at 20,000 to 30,000 cells per well (384-well plate). Cells were incubated at 37° C. overnight or until the cells reached a sufficient density in the wells (near confluent monolayer) to use in fluorescence assays. […]
# nAChR α3/β4 = nAChR α3/β4 (Homo sapiens, UniProt P30926+P32297); test: nAChR α3/β4 channel agonist assay (FLIPR, Fluo-8 calcium); details: 0.3-1000 μM; maximal stimulation not achieved
# nAChR α3/β4, sequence (P32297 32-505): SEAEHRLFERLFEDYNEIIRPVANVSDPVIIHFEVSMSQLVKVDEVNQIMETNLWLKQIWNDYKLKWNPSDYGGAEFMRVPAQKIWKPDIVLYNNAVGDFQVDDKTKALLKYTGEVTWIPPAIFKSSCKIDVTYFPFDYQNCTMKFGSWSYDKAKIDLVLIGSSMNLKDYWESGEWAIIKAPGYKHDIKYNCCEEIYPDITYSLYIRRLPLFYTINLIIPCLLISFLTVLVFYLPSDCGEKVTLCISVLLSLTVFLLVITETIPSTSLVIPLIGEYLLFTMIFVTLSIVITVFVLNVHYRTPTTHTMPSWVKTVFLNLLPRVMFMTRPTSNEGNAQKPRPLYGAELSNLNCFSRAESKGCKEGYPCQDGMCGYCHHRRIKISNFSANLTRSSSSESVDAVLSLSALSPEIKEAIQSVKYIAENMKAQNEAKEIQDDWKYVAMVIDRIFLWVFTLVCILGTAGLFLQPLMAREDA
# nAChR α3/β4, sequence (P30926 22-498): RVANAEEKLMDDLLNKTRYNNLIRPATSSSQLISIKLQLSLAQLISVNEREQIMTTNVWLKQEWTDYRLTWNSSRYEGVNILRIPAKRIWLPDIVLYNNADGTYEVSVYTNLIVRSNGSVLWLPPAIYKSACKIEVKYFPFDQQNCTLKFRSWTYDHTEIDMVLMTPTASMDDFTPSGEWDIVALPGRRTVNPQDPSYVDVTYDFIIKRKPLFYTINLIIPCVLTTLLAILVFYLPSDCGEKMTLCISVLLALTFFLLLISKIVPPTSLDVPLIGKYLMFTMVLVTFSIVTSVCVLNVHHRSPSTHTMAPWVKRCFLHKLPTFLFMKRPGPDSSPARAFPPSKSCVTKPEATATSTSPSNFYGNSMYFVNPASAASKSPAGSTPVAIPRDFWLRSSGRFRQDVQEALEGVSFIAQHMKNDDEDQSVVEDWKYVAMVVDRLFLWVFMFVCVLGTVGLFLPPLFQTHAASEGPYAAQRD
# Experimental: as §1, §2, §3, §4, §5, §6, §7
# The ability of both test articles to act as an agonist of nAChR carried out in the absence of the positive control agonist. The signal elicited in the presence of the positive control agonist, 30 μM acetylcholine (Ach) was set to 100% and the signal from the vehicle control, HEPES-buffered physiological saline (HBPS) solution was set to 0%.
# [6] = anatabine 0.1 mg/kg single i.v., Male
# [7] = anatabine 0.75 mg/kg single i.v., Female
# [8] = anatabine 0.75 mg/kg single i.v., Male
# [9] = anatabine 0.1 mg/kg, male rats, individual animals
# [10] = anatabine 0.75 mg/kg, female rats, individual animals
# [11] = anatabine 0.75 mg/kg, male rats, individual animals
smiles,measurement,setting,value
"C1=CCC(c2cccnc2)NC1 (racemic) [Anatabine, 1,2,3,6-tetrahydro-[2,3′]bipyridinyl]",physical signs,[1],no obvious adverse signs were observed
same,day 1 B.W.,"[2]; 0.1 mg/kg, F",211.1 g and 201.0 g and 210.9 g
same,day 2 B.W.,"[2]; 0.1 mg/kg, F",223.9 g and 215.1 g and 208.1 g and 208.8 g and 212.8 g
same,day 3 B.W.,"[2]; 0.1 mg/kg, F",230.8 g and 213.2 g and 209.1 g (2×) and 219.3 g
same,day 4 B.W.,"[2]; 0.1 mg/kg, F",242.3 g and 222.4 g and 220.7 g and 211.4 g and 224.7 g
same,day 5 B.W.,"[2]; 0.1 mg/kg, F",246.9 g and 226.4 g and 219.3 g and 221.0 g and 229.5 g
same,day 6 B.W.,"[2]; 0.1 mg/kg, F",241.1 g and 235.5 g and 220.1 g and 218.8 g and 222.9 g
same,day 7 B.W.,"[2]; 0.1 mg/kg, F",246.5 g and 226.4 g and 221.7 g and 222.1 g and 232.1 g
same,day 8 B.W.,"[2]; 0.1 mg/kg, F",252.0 g and 232.0 g and 227.0 g and 235.0 g
same,day 9 B.W.,"[2]; 0.1 mg/kg, F",255.1 g and 239.9 g and 224.1 g and 232.0 g
same,day 11 B.W.,"[2]; 0.1 mg/kg, F",274.8 g and 238.5 g and 233.9 g and 245.6 g and 245.4 g
same,day 12 B.W.,"[2]; 0.1 mg/kg, F",277.2 g and 246.3 g and 242.0 g and 240.0 g and 241.6 g
same,day 13 B.W.,"[2]; 0.1 mg/kg, F",271.8 g and 241 g and 242.1 g
same,day 14 B.W.,"[2]; 0.1 mg/kg, F",272.7 g and 248.5 g and 243.9 g and 255.6 g and 239.2 g
same,day 1 B.W.,"[2]; 0.1 mg/kg, M",233.7 g and 235.0 g and 243.5 g and 239.9 g
same,day 2 B.W.,"[2]; 0.1 mg/kg, M",257.0 g and 235.1 g and 231.0 g and 253.5 g and 247.3 g
same,day 3 B.W.,"[2]; 0.1 mg/kg, M",270.0 g and 251.0 g and 252.0 g and 259.4 g
same,day 4 B.W.,"[2]; 0.1 mg/kg, M",286.0 g and 270.0 g and 271.2 g and 280.5 g and 273.7 g
same,day 5 B.W.,"[2]; 0.1 mg/kg, M",296.5 g and 273.8 g and 278.5 g and 288.3 g and 286.6 g
same,day 6 B.W.,"[2]; 0.1 mg/kg, M",301.8 g and 278 g and 284.3 g and 288.3 g and 219.6 g
same,day 7 B.W.,"[2]; 0.1 mg/kg, M",318.2 g and 293.8 g and 297.6 g and 301.2 g and 300.7 g
same,day 8 B.W.,"[2]; 0.1 mg/kg, M",327.0 g and 309.0 g and 310.0 g and 311.0 g
same,day 9 B.W.,"[2]; 0.1 mg/kg, M",336.8 g and 303.4 g and 310.0 g and 318.7 g and 317.4 g
same,day 10 B.W.,"[2]; 0.1 mg/kg, M",346.4 g and 312.9 g and 319.9 g and 322.3 g and 330.4 g
same,day 11 B.W.,"[2]; 0.1 mg/kg, M",365.7 g and 331.0 g and 343.8 g and 346.9 g and 348.8 g
same,day 12 B.W.,"[2]; 0.1 mg/kg, M",359.9 g and 320.0 g and 341.9 g and 347.3 g and 360.9 g
same,day 13 B.W.,"[2]; 0.1 mg/kg, M",367 g and 331 g and 349 g and 334.4 g and 360 g
same,day 14 B.W.,"[2]; 0.1 mg/kg, M",391.0 g and 347.3 g and 368.8 g and 353.5 g and 373.8 g
same,day 1 B.W.,"[2]; 0.75 mg/kg, F",208.9 g and 207.7 g and 219.1 g and 196.7 g and 199.5 g
same,day 2 B.W.,"[2]; 0.75 mg/kg, F",206.2 g and 210.0 g (2×) and 225.5 g and 210.1 g
same,day 3 B.W.,"[2]; 0.75 mg/kg, F",214.0 g (2×) and 224.8 g and 213.6 g and 210.8 g
same,day 6 B.W.,"[2]; 0.75 mg/kg, F",224.4 g and 217.8 g and 236.2 g and 214.7 g and 221.4 g
same,day 7 B.W.,"[2]; 0.75 mg/kg, F",227.4 g and 243.2 g and 222 g and 219.3 g
same,day 8 B.W.,"[2]; 0.75 mg/kg, F",232.0 g and 220.0 g and 243.0 g and 224.6 g and 227.4 g
same,day 9 B.W.,"[2]; 0.75 mg/kg, F",237.3 g and 226.3 g and 247.6 g and 229.1 g and 230.6 g
same,day 10 B.W.,"[2]; 0.75 mg/kg, F",239.3 g and 232.2 g and 252.7 g and 230.9 g and 233.5 g
same,day 11 B.W.,"[2]; 0.75 mg/kg, F",250.9 g and 239.1 g and 268.8 g and 240.9 g and 244.1 g
same,day 12 B.W.,"[2]; 0.75 mg/kg, F",249.7 g and 233.5 g and 259.6 g and 241.6 g and 247.9 g
same,day 13 B.W.,"[2]; 0.75 mg/kg, F",248 g and 237.2 g and 268 g and 234 g and 243 g
same,day 14 B.W.,"[2]; 0.75 mg/kg, F",251.5 g and 242.8 g and 274.1 g and 250.7 g and 250.6 g
same,day 4 B.W.,"[2]; 0.75 mg/kg, F, second one headed day 4",225.4 g and 219.3 g and 237.1 g and 220.8 g and 227.6 g
same,day 4 B.W.,"[2]; 0.75 mg/kg, F, day 4",230.0 g and 214.7 g and 232.4 g and 222.1 g and 220.0 g
same,day 1 B.W.,"[2]; 0.75 mg/kg, M",242.7 g and 251.4 g and 231.9 g and 226.8 g and 239.8 g
same,day 2 B.W.,"[2]; 0.75 mg/kg, M",259.7 g and 240.0 g and 232.1 g and 247.2 g
same,day 3 B.W.,"[2]; 0.75 mg/kg, M",261.1 g and 269.1 g and 252.0 g and 243.0 g and 256.1 g
same,day 6 B.W.,"[2]; 0.75 mg/kg, M",282.4 g and 287.6 g and 268.2 g (2×) and 281.3 g
same,day 7 B.W.,"[2]; 0.75 mg/kg, M",294.5 g and 302.9 g and 281.8 g and 274.1 g and 287.1 g
same,day 8 B.W.,"[2]; 0.75 mg/kg, M",300.0 g and 310.6 g and 293.4 g and 284.2 g
same,day 9 B.W.,"[2]; 0.75 mg/kg, M",307.6 g and 319.8 g and 298.8 g and 296.2 g and 298.5 g
same,day 10 B.W.,"[2]; 0.75 mg/kg, M",317.2 g and 331.9 g and 307.9 g and 303.8 g and 306.8 g
same,day 11 B.W.,"[2]; 0.75 mg/kg, M",334.6 g and 339.8 g and 329.4 g and 316.1 g and 321.9 g
same,day 12 B.W.,"[2]; 0.75 mg/kg, M",327.6 g and 325.4 g and 322.5 g and 324.8 g and 331.1 g
same,day 13 B.W.,"[2]; 0.75 mg/kg, M",335.6 g and 338 g and 330 g and 326 g (2×)
same,day 14 B.W.,"[2]; 0.75 mg/kg, M",351.9 g and 357.9 g and 345.1 g and 339 g and 335.9 g
same,day 4 B.W.,"[2]; 0.75 mg/kg, M, second one headed day 4",282.3 g and 287.6 g and 269.9 g and 262.0 g and 275.7 g
same,day 4 B.W.,"[2]; 0.75 mg/kg, M, day 4",275.7 g and 286.0 g and 268.0 g and 256.3 g and 271.2 g
same,Mean weigth increase by day 14,"[2]; anatabine 0.1 mg/kg single i.v., Female",39.0 g
same,Mean food consumption/day,[2]; [6],31.0 g
same,Mean weigth increase by day 14,[2]; [6],132.5 g
same,Mean food consumption/day,[2]; [7],19.7 g
same,Mean weigth increase by day 14,[2]; [7],43.1 g
same,Mean food consumption/day,[2]; [8],27.8 g
same,Mean weigth increase by day 14,[2]; [8],111.6 g
same,ACTIVE PARTIAL THROMBOPLASTIN TIME,"[3]; anatabine 0.1 mg/kg, female rats, individual animals",31.1 s and 34.2 s and 26 s and 28.9 s
same,ACTIVE PARTIAL THROMBOPLASTIN TIME,[3]; [9],36.4 s and 28.9 s and 32 s
same,PROTHROMBIN TIME,[3]; [9],13.4 s and 12.5 s
same,ACTIVE PARTIAL THROMBOPLASTIN TIME,[3]; [10],32.5 s and 32.7 s and 38.2 s
same,PROTHROMBIN TIME,[3]; [10],23.8 s
same,ACTIVE PARTIAL THROMBOPLASTIN TIME,[3]; [11],39.7 s and 43.9 s and 50.4 s
same,PROTHROMBIN TIME,[3]; [11],17.9 s
same,ACTIVATED PARTIAL THROMBOPLASTIN TIME,"[3]; female, 0.1 mg/kg, group mean",29.4 s
same,ACTIVATED PARTIAL THROMBOPLASTIN TIME,"[3]; female, 0.75 mg/kg, group mean",33.3 s
same,PROTHROMBIN TIME,"[3]; female, 0.75 mg/kg, group mean",14.1 s
same,PROTHROMBIN TIME,"[3]; male, 0.1 mg/kg, group mean",12.8 s
same,ACTIVATED PARTIAL THROMBOPLASTIN TIME,"[3]; male, 0.75 mg/kg, group mean",38.7 s
same,PROTHROMBIN TIME,"[3]; male, 0.75 mg/kg, group mean",13.3 s
same,agonist activity,nAChR α4/β2 [4],displays full agonist activity
same,inhibition of receptor activity,nAChR α4/β2 [5],inhibited receptor activity
same,agonist activity,nAChR α3/β4,showed agonist activity
